Paper PMC8318231, “Rate-of-Kill (RoK) assays to triage large compound sets for Chagas disease drug discovery: Application to GSK Chagas Box” (PLoS Neglected Tropical Diseases, 2021)

What was measured:
[1] = system: T. cruzi Tulahuen trypomastigotes; experiment: T. cruzi trypomastigote assay (Cell Titer-Glo viability, ATP luminescence); assay type: cell-based, Trypanosoma cruzi; conditions: for Trypomastigotes pIC50 48 hours: 48 hours incubation; for Trypomastigotes pIC50 48 hours / Trypomastigotes pIC50 72 hours: pIC50 = -log10 IC50 in molar units; for Trypomastigotes pIC50 72 hours: 72 hours incubation; for 72 pIC50 (trypomastigotes, raw data of Fig 1D): 72 hours, plotted values, censored values given without sign; for 48 pIC50 / 72 pIC50: trypomastigote assay; for 48 pIC50: 48 h; for 72 pIC50: 72 h
Summary of the method: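 Compounds were tested in dose response or once at a final 5 μM against 5 × 10^4 trypomastigotes per well (DMEM, 2% FBS), collected on days 5–8 from LLC-MK2 infected cultures. ATP luminescence via CellTiter-Glo reports live parasites; DMSO defines 0% and cell-free wells 100% effect.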

[2] = system: TcCYP51; conditions: formerly reported; cited from earlier work
[3] = system: T. cruzi intracellular amastigotes in H9c2 cells; experiment: Rate-of-Kill (RoK) high-content imaging assay, amastigotes per cell (AM/CELL) and curve descriptors; assay type: cell-based, Trypanosoma cruzi; set-up: key to ME_24h / ME_48h / ME_72h: % reduction in parasite burden (cidal response); t50pct_MCC50 / t50pct_Cmax: unit not given here; conditions: for ME_24h: 24h; for ME_48h: 48h; for ME_72h: 72h; for ME_24h (%): maximum effect at 24 h; for ME_24h (%) / ME_48h (%) / ME_72h (%): RoK assay; for ME_48h (%): maximum effect at 48 h; for ME_72h (%): maximum effect at 72 h; for ME 24h (maximum effect at 24 hours, intracellular amastigotes): maximum percentage of parasite burden reduction reached by any concentration
Summary of the method: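 Readouts at each time point are amastigotes per cell and host nuclei count (cytotoxicity), from DRAQ5 high-content imaging. Infection: trypomastigotes on H9c2 at MOI 8 for 18 h. Dosing was 5 μM single point or 11 points, 1/3 steps from 50 μM. Effect scaled between 4 h infected and uninfected controls.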

| SMILES | Trypomastigotes pIC50 48 hours [1] | Trypomastigotes pIC50 72 hours [1] | 72 pIC50 (trypomastigotes, raw data of Fig 1D) [1] | 48 pIC50 ([1]; figure 1A) | 72 pIC50 ([1]; figure 1A) | CYP51 pIC50 [2] | ME_24h ([3]; figure 5) | ME_48h ([3]; figure 5) | ME_72h ([3]; figure 5) | MCCE ([3]; RoK curve descriptor) [µM] | tlag_Cmax ([3]; at Cmax) [h] | t50pct_Cmax ([3]; at Cmax, figure 5) | tlag_Cmax ([3]; at Cmax, figure 5) | t50pct_MCC50 ([3]; at MCC50, figure 5) | tlag_MCC50 ([3]; at MCC50, figure 5) | MCCE ([3]; figure 5) | ME_24h (%) [3] [%] | ME_48h (%) [3] [%] | ME_72h (%) [3] [%] | ME 24h (maximum effect at 24 hours, intracellular amastigotes) [3] [%] | further results |
| --- | --- | --- | --- | --- | --- | --- | --- | --- | --- | --- | --- | --- | --- | --- | --- | --- | --- | --- | --- | --- | --- |
| N#Cc1ccc(S(=O)(=O)N2CCC3(CCN(c4ccccc4)C3=O)CC2)cc1 [TCMDC-143371] | < 4.3 | < 4.3 | < 4.3 | < 4.3 | < 4.3 | < 4 | -78.0559 | 40.2473 | 62.6058 | 1.2 | 36.0 | 72 | 36 | 72 | 48 | 1.235 | -78.1 | 40.3 | 62.6 | -50.5626 | 72 pIC50 ([1]; figure 1B): < 4.3; MCC50 ([3]; RoK curve descriptor): 5.6 µM; AM/CELL NORM ([3]; Time 4, sheet figure 4 A): 10.0376; AM/CELL NORM ([3]; Time 24, sheet figure 4 A): -56.4995; AM/CELL NORM ([3]; Time 48, sheet figure 4 A): 45.4375; AM/CELL NORM ([3]; Time 72, sheet figure 4 A): 85.4584; t50%_Cmax ([3]; at Cmax): 72.0 h; t50%_MCC50 ([3]; at MCC50): 72.0 h; tlag_MCC50 ([3]; at MCC50): 24.0 h; MCC50 ([3]; figure 5, in µM): 27.7778 |
| CC(C)Nc1nccc(-c2c(-c3ccc(F)cc3)ncn2C2CCOCC2)n1 [TCMDC-143379] | < 4.3 | < 4.3 | < 4.3 | < 4.3 | < 4.3 | < 4 | -22.482 | -3.3846 | 36.7081 | 0.2 | 24.0 | 72 | 24 | 72 | 72 | 0.2058 | -22.5 | -3.4 | 36.7 | -22.482 | 72 pIC50 ([1]; figure 1B): < 4.3; AM/CELL NORM ([3]; Time 4, sheet figure 4 A): -6.859; AM/CELL NORM ([3]; Time 24, sheet figure 4 A): -37.6965; AM/CELL NORM ([3]; Time 48, sheet figure 4 A): -3.3846; AM/CELL NORM ([3]; Time 72, sheet figure 4 A): 36.7081; MCC50 ([3]; figure 5): 50 µM |
| O=C(N1CCc2ccccc2CC1)C1(C(=O)N2CCC(n3c(=O)[nH]c4ncccc43)CC2)CC1.O=C(O)C(F)(F)F [TCMDC-143381] | < 4.3 | < 4.3 | < 4.3 | < 4.3 | < 4.3 | 6.5 | -241.612 | -106.513 | 38.7809 | 1.9 | 24.0 | 72 | 24 | 72 | 72 | 1.852 | -241.6 | -106.5 | 38.8 | -241.612 | 72 pIC50 ([1]; figure 1B): < 4.3; AM/CELL NORM ([3]; Time 4, sheet figure 4 A): 8.613; AM/CELL NORM ([3]; Time 24, sheet figure 4 A): -274.305; AM/CELL NORM ([3]; Time 48, sheet figure 4 A): -155.332; AM/CELL NORM ([3]; Time 72, sheet figure 4 A): 34.067; MCC50 ([3]; figure 5): 50 µM |
| COc1ccc2ncc(=O)n(CCN3CCOC(CNCc4ccc(C(F)(F)F)cc4F)C3)c2n1 (centres unmarked) [TCMDC-143384] | < 4.3 | < 4.3 | < 4.3 | < 4.3 | < 4.3 | 5 | -27.6403 | -15.9254 | -18.8553 | 0.6 | 24.0 | 72 | 24 | 72 | 72 | 0.6173 | -27.6 | -15.9 | -18.9 | -27.6403 | 72 pIC50 ([1]; figure 1B): < 4.3; AM/CELL NORM ([3]; Time 4, sheet figure 4 A): -15.3138; AM/CELL NORM ([3]; Time 24, sheet figure 4 A): -27.6403; AM/CELL NORM ([3]; Time 48, sheet figure 4 A): -15.9254; AM/CELL NORM ([3]; Time 72, sheet figure 4 A): -18.8553; MCC50 ([3]; figure 5): 50 µM |
| CS(=O)(=O)c1cccc(CNC(=O)c2cncc(N3CCN(c4ccc(F)cc4)CC3)c2)c1.O=C(O)C(F)(F)F.O=C(O)C(F)(F)F.O=C(O)C(F)(F)F [TCMDC-143385] | < 4.3 | < 4.3 | < 4.3 | < 4.3 | < 4.3 | 4.9 | -140.527 | 14.5657 | 58.9567 | 8.6 | 24.0 | 72 | 24 | 72 | 48 | 8.642 | -140.5 | 14.6 | 59.0 | -76.6949 | 72 pIC50 ([1]; figure 1B): < 4.3; MCC50 ([3]; RoK curve descriptor): 1.9 µM; AM/CELL NORM ([3]; Time 4, sheet figure 4 A): -2.309; AM/CELL NORM ([3]; Time 24, sheet figure 4 A): -204.359; AM/CELL NORM ([3]; Time 48, sheet figure 4 A): 18.8519; AM/CELL NORM ([3]; Time 72, sheet figure 4 A): 47.2855; t50%_MCC50 ([3]; at MCC50): 72.0 h; tlag_MCC50 ([3]; at MCC50): 24.0 h; MCC50 ([3]; figure 5, in µM): 25.9259 |
| O[C@H]1CC[C@H](Nc2nccc(-c3sc(C4CCOCC4)nc3-c3ccc(F)c(F)c3)n2)CC1 [TCMDC-143387] | 4.5 | < 4.3 |  |  |  | < 4 | -7.952 | -1.621 | 23.2073 | 0.07 | 24.0 | 72 | 24 | 72 | 72 | 0.06859 | -8.0 | -1.6 | 23.2 | -7.952 | AM/CELL NORM ([3]; Time 4, figure 4 A): 2.207; AM/CELL NORM ([3]; Time 24, figure 4 A): -7.952; AM/CELL NORM ([3]; Time 48, figure 4 A): -3.462; AM/CELL NORM ([3]; Time 72, figure 4 A): 23.2073; MCC50 ([3]; figure 5): 50 µM |
| O=C(O)C(F)(F)F.O=c1oc2ccccc2n1C1CCN(Cc2ccccc2-c2cccnc2)CC1 [TCMDC-143389] | < 4.3 | < 4.3 | < 4.3 | < 4.3 | < 4.3 | 7 | -205.37 | -40.6003 | 54.0373 | 0.2 | 24.0 | 72 | 24 | 72 | 24 | 0.2058 | -205.4 | -40.6 | 54.0 | -205.37 | 72 pIC50 ([1]; figure 1B): < 4.3; MCC50 ([3]; RoK curve descriptor): 5.6 µM; AM/CELL NORM ([3]; Time 4, sheet figure 4 A): -7.014; AM/CELL NORM ([3]; Time 24, sheet figure 4 A): -205.37; AM/CELL NORM ([3]; Time 48, sheet figure 4 A): -40.6003; AM/CELL NORM ([3]; Time 72, sheet figure 4 A): 17.0901; t50%_MCC50 ([3]; at MCC50): 72.0 h; tlag_MCC50 ([3]; at MCC50): 24.0 h; MCC50 ([3]; figure 5, in µM): 5.556 |
